In patent publication EP0908457B1, “3-(1,2-benzisothiazol- and isoxazol-5-Y1)-2,4(1H,3H)-pyrimidinedione or thione and 3-(1,2-benzisothiazol- and isoxazol-5-y1)-4(3H)-pyrimidinone or thione herbicidal agents” (BASF AKTIENGESELLSCHAFT, priority 1997, dated 1999):

How the values were obtained:
Type in all cases: in vivo
[1] = test system: Echinochloa oryzoides (Ard.) Fritsch.; assay: Preemergence weed control under flooded paddy conditions, ECHORC (Watergrass (Calif.)); settings: preemergence, flooded paddy, rated three to four weeks after treatment; for herbicidal effect rating, ECHORC: meaning of each grade not given here
Cyperus iria = assay: Preemergence weed control under flooded paddy conditions, CYPIR (Rice Flatsedge); settings: preemergence, flooded paddy, rated three to four weeks after treatment; for herbicidal effect rating, CYPIR: meaning of each grade not given here
[2] = test system: Cyperus serotinus, Rottb.; assay: Preemergence weed control under flooded paddy conditions, CYPSE (Flatsedge); settings: preemergence, rated three to four weeks after treatment; for herbicidal effect rating, CYPSE: meaning of each grade not given here
[3] = test system: Monochoria vaginalis, Presl.; assay: Preemergence weed control under flooded paddy conditions, MOOVA (Monochoria); settings: preemergence, flooded paddy, rated three to four weeks after treatment; for herbicidal effect rating, MOOVA: meaning of each grade not given here
Sagittaria pygmaea, L. = assay: Preemergence weed control under flooded paddy conditions, SAGPY (Arrowhead (Pygmaea)); settings: preemergence, flooded paddy, rated three to four weeks after treatment; for herbicidal effect rating, SAGPY: meaning of each grade not given here

**Q.** Which results are given for COC(=O)C(C)Oc1cc(C)c(I)cc1-c1nsc2ccc(-n3c(=O)cc(C(F)(F)F)n(C)c3=O)cc12 (stereo not shown) [Example 470, Propionic acid, 2-{{6-{5-[3,6-dihydro-3-methyl-2,6-dioxo-4-(trifluoromethyl)-1(2H)-pyrimidinyl]-1,2-benzisothiazol-3-yl}-4-iodo-m-tolyl}oxy}-, methyl ester]?
**A.** ECHORC herbicidal rating ([1]; 0.0320 kg/ha): 8.5; ECHORC herbicidal rating ([1]; 0.0620 kg/ha): 9.0; ECHORC herbicidal rating ([1]; 0.1250 kg/ha): 9.0; ECHORC herbicidal rating ([1]; 0.2500 kg/ha): 9.0; CYPIR herbicidal rating (Cyperus iria; 0.0320 kg/ha): 0.0; CYPIR herbicidal rating (Cyperus iria; 0.0620 kg/ha): 0.0; CYPIR herbicidal rating (Cyperus iria; 0.1250 kg/ha): 6.0; CYPIR herbicidal rating (Cyperus iria; 0.2500 kg/ha): 7.0; CYPSE herbicidal rating ([2]; 0.0320 kg/ha): 0.0; CYPSE herbicidal rating ([2]; 0.0620 kg/ha): 0.0; CYPSE herbicidal rating ([2]; 0.1250 kg/ha): 0.0; CYPSE herbicidal rating ([2]; 0.2500 kg/ha): 4.5; MOOVA herbicidal rating ([3]; 0.0320 kg/ha): 1.5; MOOVA herbicidal rating ([3]; 0.0620 kg/ha): 2.0; MOOVA herbicidal rating ([3]; 0.1250 kg/ha): 2.0; MOOVA herbicidal rating ([3]; 0.2500 kg/ha): 3.0; SAGPY herbicidal rating (Sagittaria pygmaea, L.; 0.0320 kg/ha): 0.0; SAGPY herbicidal rating (Sagittaria pygmaea, L.; 0.0620 kg/ha): 0.0; SAGPY herbicidal rating (Sagittaria pygmaea, L.; 0.1250 kg/ha): 0.0; SAGPY herbicidal rating (Sagittaria pygmaea, L.; 0.2500 kg/ha): 1.5

**Q.** Which results are given for Cn1c(C(F)(F)F)cc(=O)n(-c2ccc3snc(COS(C)(=O)=O)c3c2)c1=O [Example 363, 2,4(1H,3H)-Pyrimidinedione, 3-[3-(hydroxymethyl)-1,2-benzisothiazol-5-yl]-1-methyl-6-(trifluoromethyl)-, methanesulfonate (ester)]?
**A.** herbicidal effect rating, ECHORC ([1]; Rate 0.0320 kg/ha): 3.0; herbicidal effect rating, ECHORC ([1]; Rate 0.0620 kg/ha): 4.0; herbicidal effect rating, ECHORC ([1]; Rate 0.1250 kg/ha): 5.0; herbicidal effect rating, ECHORC ([1]; Rate 0.2500 kg/ha): 6.0; herbicidal effect rating, ECHORC ([1]; Rate 0.5000 kg/ha): 7.0; herbicidal effect rating, CYPIR (Cyperus iria; Rate 0.0320 kg/ha): 6.0; herbicidal effect rating, CYPIR (Cyperus iria; Rate 0.0620 kg/ha): 7.0; herbicidal effect rating, CYPIR (Cyperus iria; Rate 0.1250 kg/ha): 7.0; herbicidal effect rating, CYPIR (Cyperus iria; Rate 0.2500 kg/ha): 7.0; herbicidal effect rating, CYPIR (Cyperus iria; Rate 0.5000 kg/ha): 8.0; herbicidal effect rating, CYPSE ([2]; Rate 0.0320 kg/ha): 0.0; herbicidal effect rating, CYPSE ([2]; Rate 0.0620 kg/ha): 0.0; herbicidal effect rating, CYPSE ([2]; Rate 0.1250 kg/ha): 5.0; herbicidal effect rating, CYPSE ([2]; Rate 0.2500 kg/ha): 7.0; herbicidal effect rating, CYPSE ([2]; Rate 0.5000 kg/ha): 7.0; herbicidal effect rating, MOOVA ([3]; Rate 0.0320 kg/ha): 9.0; herbicidal effect rating, MOOVA ([3]; Rate 0.0620 kg/ha): 9.0; herbicidal effect rating, MOOVA ([3]; Rate 0.1250 kg/ha): 9.0; herbicidal effect rating, MOOVA ([3]; Rate 0.2500 kg/ha): 9.0; herbicidal effect rating, MOOVA ([3]; Rate 0.5000 kg/ha): 9.0; herbicidal effect rating, SAGPY (Sagittaria pygmaea, L.; Rate 0.0320 kg/ha): 3.0; herbicidal effect rating, SAGPY (Sagittaria pygmaea, L.; Rate 0.0620 kg/ha): 5.0; herbicidal effect rating, SAGPY (Sagittaria pygmaea, L.; Rate 0.1250 kg/ha): 7.0; herbicidal effect rating, SAGPY (Sagittaria pygmaea, L.; Rate 0.2500 kg/ha): 9.0; herbicidal effect rating, SAGPY (Sagittaria pygmaea, L.; Rate 0.5000 kg/ha): 9.0

**Q.** How did the “herbicidal effect rating, ECHORC” value ([1]; 0.0313 kg/ha) turn out when Cc1ccc(OCC(=O)n2cnc3ccccc32)c(-c2nsc3ccc(-n4c(=O)cc(C(F)(F)F)n(C)c4=O)cc23)c1 [Example 62] was run?
**A.** 6.0

**Q.** And the “herbicidal effect rating, ECHORC” value ([1]; 0.0625 kg/ha)?
**A.** 9.0

**Q.** And the “herbicidal effect rating, ECHORC” value ([1]; 0.1250 kg/ha)?
**A.** 9.0

**Q.** And the “herbicidal effect rating, ECHORC” value ([1]; 0.2500 kg/ha)?
**A.** 9.0

**Q.** What about the “herbicidal effect rating, CYPIR” value (Cyperus iria; 0.0313 kg/ha) of the same molecule?
**A.** 4.0

**Q.** What about the “herbicidal effect rating, CYPIR” value (Cyperus iria; 0.0625 kg/ha) of the same molecule?
**A.** 6.0

**Q.** And the “herbicidal effect rating, CYPIR” value (Cyperus iria; 0.1250 kg/ha)?
**A.** 9.0

**Q.** And the “herbicidal effect rating, CYPIR” value (Cyperus iria; 0.2500 kg/ha)?
**A.** 9.0

**Q.** What about the “herbicidal effect rating, CYPSE” value ([2]; 0.0313 kg/ha) of the same molecule?
**A.** 0.0

**Q.** What about the “herbicidal effect rating, CYPSE” value ([2]; 0.0625 kg/ha) of the same molecule?
**A.** 1.0

**Q.** And the “herbicidal effect rating, CYPSE” value ([2]; 0.1250 kg/ha)?
**A.** 2.0

**Q.** And the “herbicidal effect rating, CYPSE” value ([2]; 0.2500 kg/ha)?
**A.** 9.0

**Q.** What about the “herbicidal effect rating, MOOVA” value ([3]; 0.0313 kg/ha) of the same molecule?
**A.** 9.0

**Q.** What about the “herbicidal effect rating, MOOVA” value ([3]; 0.0625 kg/ha) of the same molecule?
**A.** 9.0

**Q.** And the “herbicidal effect rating, MOOVA” value ([3]; 0.1250 kg/ha)?
**A.** 9.0

**Q.** What about the “herbicidal effect rating, MOOVA” value ([3]; 0.2500 kg/ha) of the same molecule?
**A.** 9.0

**Q.** And the “herbicidal effect rating, SAGPY” value (Sagittaria pygmaea, L.; 0.0313 kg/ha)?
**A.** 0.0

**Q.** And the “herbicidal effect rating, SAGPY” value (Sagittaria pygmaea, L.; 0.0625 kg/ha)?
**A.** 1.0

**Q.** What about the “herbicidal effect rating, SAGPY” value (Sagittaria pygmaea, L.; 0.1250 kg/ha) of the same molecule?
**A.** 4.0

**Q.** What about the “herbicidal effect rating, SAGPY” value (Sagittaria pygmaea, L.; 0.2500 kg/ha) of the same molecule?
**A.** 7.0

**Q.** Cn1c(C(F)(F)F)cc(=O)n(-c2ccc3snc(C(C#N)=Cc4ccccc4F)c3c2)c1=O [Example 605, 1,2-Benzisothiazole-3-acetonitrile, 5-[3,6-dihydro-3-methyl-2,6-dioxo-4-(trifluoromethyl)-1(2H)-pyrimidinyl]-alpha-(o-fluorobenzylidene)-] was tested. Which “herbicidal effect rating, ECHORC” value ([1]; Rate 0.0320 kg/ha) did it give?
**A.** 4.0

**Q.** And the “herbicidal effect rating, ECHORC” value ([1]; Rate 0.0620 kg/ha)?
**A.** 4.0

**Q.** And the “herbicidal effect rating, ECHORC” value ([1]; Rate 0.1250 kg/ha)?
**A.** 7.0

**Q.** What about the “herbicidal effect rating, ECHORC” value ([1]; Rate 0.2500 kg/ha) of the same molecule?
**A.** 7.0

**Q.** What about the “herbicidal effect rating, CYPIR” value (Cyperus iria; Rate 0.0320 kg/ha) of the same molecule?
**A.** 1.0

**Q.** And the “herbicidal effect rating, CYPIR” value (Cyperus iria; Rate 0.0620 kg/ha)?
**A.** 3.0

**Q.** What about the “herbicidal effect rating, CYPIR” value (Cyperus iria; Rate 0.1250 kg/ha) of the same molecule?
**A.** 7.0

**Q.** And the “herbicidal effect rating, CYPIR” value (Cyperus iria; Rate 0.2500 kg/ha)?
**A.** 7.0

**Q.** And the “herbicidal effect rating, CYPSE” value ([2]; Rate 0.0320 kg/ha)?
**A.** 0.0

**Q.** And the “herbicidal effect rating, CYPSE” value ([2]; Rate 0.0620 kg/ha)?
**A.** 0.0

**Q.** What about the “herbicidal effect rating, CYPSE” value ([2]; Rate 0.1250 kg/ha) of the same molecule?
**A.** 0.0

**Q.** What about the “herbicidal effect rating, CYPSE” value ([2]; Rate 0.2500 kg/ha) of the same molecule?
**A.** 0.0

**Q.** What about the “herbicidal effect rating, MOOVA” value ([3]; Rate 0.0320 kg/ha) of the same molecule?
**A.** 9.0

**Q.** And the “herbicidal effect rating, MOOVA” value ([3]; Rate 0.0620 kg/ha)?
**A.** 9.0

**Q.** And the “herbicidal effect rating, MOOVA” value ([3]; Rate 0.1250 kg/ha)?
**A.** 9.0

**Q.** And the “herbicidal effect rating, MOOVA” value ([3]; Rate 0.2500 kg/ha)?
**A.** 9.0

**Q.** What about the “herbicidal effect rating, SAGPY” value (Sagittaria pygmaea, L.; Rate 0.0320 kg/ha) of the same molecule?
**A.** 4.0

**Q.** What about the “herbicidal effect rating, SAGPY” value (Sagittaria pygmaea, L.; Rate 0.0620 kg/ha) of the same molecule?
**A.** 4.0

**Q.** And the “herbicidal effect rating, SAGPY” value (Sagittaria pygmaea, L.; Rate 0.1250 kg/ha)?
**A.** 5.0

**Q.** And the “herbicidal effect rating, SAGPY” value (Sagittaria pygmaea, L.; Rate 0.2500 kg/ha)?
**A.** 7.0
